US11964971B2, “Methods and compositions for modulating splicing” (Skyhawk Therapeutics, Inc., priority 2019, dated 2024)

Tests used:
[1] = system: SMN protein; assay: SMN protein assay (MSD) in SMA patient fibroblasts (GM03813); assay type: cell-based, human
Description: Compounds are tested on spinal muscular atrophy (SMA) patient fibroblasts (GM03813, Coriell) at doses ranging from 2.5 μM to 0.6 nM. 7000 cells/well are seeded in 96-well plates. Compounds are incubated for 48 hours and the cells were lysed with 100 μL of lysis buffer. 20 μL of lysate is used for SMN protein measurement by Mesoscale Discovery (MSD) assay developed by PharmOptima (Michigan). A standard curve prepared with SMN protein ranging from […] is used in each MSD plate to calculate the absolute SMN protein amount in each sample.

[2] = system: MDR1-MDCK cell monolayers; conditions: dog, MDCK-MDR1, 120 min, 5 μM, pH 7.4
[3] = system: MDR1; assay: in vitro; conditions: dog; for Papp A→B at 120 min, 5 μM: MDCK-MDR1, pH 7.4, MDCK-MDR1: Papp A-B (10^−6, cm/s); for Papp B→A at 120 min, 5 μM: MDCK-MDR1, pH 7.4, MDCK-MDR1: Papp B-A (10^−6, cm/s)
[4] = system: MDR1 (P-gp); assay: MDCK-MDR1 permeability assay, blood-brain-barrier penetration potential; conditions: dog, MDCK-MDR1, pH 7.4, MDCK-MDR1 Efflux Ratio

Structure (SMILES)	EC50 [1] [nM]	MDCK-MDR1: % Recov A-B (%) [2] [%]	MDCK-MDR1: % Recov B-A (%) [2] [%]	Papp A→B at 120 min, 5 μM [3] [×10⁻⁶ cm/s]	Papp B→A at 120 min, 5 μM [3] [×10⁻⁶ cm/s]	efflux ratio at 120 min, 5 μM [4]
CN(c1cnc(-c2cc(F)c(-n3ccnn3)cc2O)cn1)[C@@H]1CC2CC[C@H](N2)[C@@H]1F (single isomer, unassigned) [Compound 21E1]	501 to 10000	83	91	8.48	43.5	5
CN(c1cnc(-c2cc(F)c(-n3ccnn3)cc2O)cn1)[C@H]1C[C@@H]2CCC(N2)[C@H]1F (single isomer, unassigned) [Compound 21E2]	501 to 10000	78	85	11.3	48	4
CN(c1cnc(-c2ccc(-c3cn[nH]c3)cc2O)cn1)[C@@H]1CC2CC[C@H](N2)[C@H]1F (single isomer, unassigned) [Compound 27E1]	501 to 10000	77	79	3.87	28.7	7
CN(c1cnc(-c2cc(F)c(-c3cnn(CF)c3)cc2O)cn1)[C@@H]1CC2CC[C@H](N2)[C@@H]1F (single isomer, unassigned) [Compound 29E1]	16 to 50	38	56	6.29	17.2	3
COc1cc(-c2cc(O)c(-c3cnc(N(C)[C@@H]4CC5CC[C@H](N5)[C@@H]4F)cn3)cc2F)ccn1 (single isomer, unassigned) [Compound 30E1]	501 to 10000	13	49	3.95	5.24	1
COc1cc(-c2cc(O)c(-c3cnc(N(C)[C@H]4C[C@@H]5CCC(N5)[C@H]4F)cn3)cc2F)ccn1 (single isomer, unassigned) [Compound 30E2]	51 to 100	10	37	2.55	4.14	2
COc1cc(-c2cc(O)c(-c3cnc(N(C)[C@@H]4CC5CC[C@H](N5)[C@@H]4F)cn3)cc2F)cc(F)n1 (single isomer, unassigned) [Compound 31E1]	501 to 10000	58	65	0.48	0.8	2
COc1cc(-c2cc(O)c(-c3cnc(N(C)[C@H]4C[C@@H]5CCC(N5)[C@H]4F)cn3)cc2F)cc(F)n1 (single isomer, unassigned) [Compound 31E2]	16 to 50	59	67	0.33	0.5	2
CN(c1cnc(-c2cc(F)c(-c3ccn(CF)c(=O)c3)cc2O)cn1)[C@H]1C[C@@H]2CCC(N2)[C@H]1F (single isomer, unassigned) [Compound 32E2]	16 to 50	86	88	2.58	51.2	20
CN(c1cnc(-c2cc(F)c(-c3cc(=O)n(C)cn3)cc2O)cn1)[C@H]1C[C@@H]2CCC(N2)[C@H]1F (single isomer, unassigned) [Compound 33E2]	501 to 10000	91	99	3.5	62.7	18
Cn1cc(-c2cc(O)c(-c3cnc(N(C4CC4)[C@H]4C[C@@H]5CCC(N5)[C@H]4F)cn3)cc2F)cn1 (single isomer, unassigned) [Compound 35E2]	501 to 10000	32	61	4.64	17.9	4
COc1cc(-c2cc(O)c(-c3cnc(N(C4CC4)[C@@H]4CC5CC[C@H](N5)[C@@H]4F)cn3)cc2F)ccn1 (single isomer, unassigned) [Compound 36E1]	501 to 10000	8	37	0.52	1.41	3
COc1cc(-c2cc(O)c(-c3cnc(N(C4CC4)[C@H]4C[C@@H]5CCC(N5)[C@H]4F)cn3)cc2F)ccn1 (single isomer, unassigned) [Compound 36E2]	501 to 10000	10	40	0.59	1.3	2
COc1cc(-c2cc(O)c(-c3cnc(N(C4CC4)[C@@H]4CC5CC[C@H](N5)[C@@H]4F)cn3)cc2F)cc(F)n1 (single isomer, unassigned) [Compound 37E1]	501 to 10000	18	53	1.41	2.73	2
COc1cc(-c2cc(O)c(-c3cnc(N(C4CC4)[C@H]4C[C@@H]5CCC(N5)[C@H]4F)cn3)cc2F)cc(F)n1 (single isomer, unassigned) [Compound 37E2]	501 to 10000	19	45	0.94	2.58	3
Cn1ccc(-c2cc(O)c(-c3cnc(N(C4CC4)[C@@H]4CC5CC[C@H](N5)[C@@H]4F)cn3)cc2F)cc1=O (single isomer, unassigned) [Compound 38E1]	501 to 10000	81	94	1.47	54.9	37
Cn1ccc(-c2cc(O)c(-c3cnc(N(C4CC4)[C@H]4C[C@@H]5CCC(N5)[C@H]4F)cn3)cc2F)cc1=O (single isomer, unassigned) [Compound 38E2]	501 to 10000	82	82	1.75	57.7	33
O=c1cc(-c2cc(O)c(-c3cnc(N(C4CC4)[C@@H]4CC5CC[C@H](N5)[C@@H]4F)cn3)cc2F)ccn1CF (single isomer, unassigned) [Compound 39E1]	501 to 10000	70	89	2.1	64.2	31
O=c1cc(-c2cc(O)c(-c3cnc(N(C4CC4)[C@H]4C[C@@H]5CCC(N5)[C@H]4F)cn3)cc2F)ccn1CF (single isomer, unassigned) [Compound 39E2]	501 to 10000	82	81	2.58	62	24
Oc1cc(-c2cn[nH]c2)c(F)cc1-c1cnc(N(C2CC2)[C@@H]2CC3CC[C@H](N3)[C@@H]2F)cn1 (single isomer, unassigned) [Compound 41E1]	501 to 10000	54	75	6.63	39.2	8
Oc1cc(-c2cn[nH]c2)c(F)cc1-c1cnc(N(C2CC2)[C@H]2C[C@@H]3CCC(N3)[C@H]2F)cn1 (single isomer, unassigned) [Compound 41E2]	101 to 500	54	72	6.09	34.4	6
CN(c1cnc(-c2ccc(-c3cnn(CF)c3)cc2O)cn1)[C@H]1C[C@@H]2CCC(N2)[C@H]1F (single isomer, unassigned) [Compound 42E2]	501 to 10000	44	60	5.95	31.8	5
COc1cc(-c2ccc(-c3cnc(N(C)[C@@H]4CC5CC[C@H](N5)[C@@H]4F)cn3)c(O)c2)ccn1 (single isomer, unassigned) [Compound 43E1]	101 to 500	18	50	1.06	1.31	1
COc1cc(-c2ccc(-c3cnc(N(C)[C@H]4C[C@@H]5CCC(N5)[C@H]4F)cn3)c(O)c2)ccn1 (single isomer, unassigned) [Compound 43E2]	16 to 50	12	49	0.98	1.35	1
COc1cc(-c2ccc(-c3cnc(N(C)[C@@H]4CC5CC[C@H](N5)[C@@H]4F)cn3)c(O)c2)cc(F)n1 (single isomer, unassigned) [Compound 44E1]	501 to 10000	14	41	2.33	5.55	2
